Legend:
[1] = test system: hypersensitive cell death induced by cryptogein; test: Hypersensitive cell death induced in tobacco by cryptogein (data not shown); type: in vivo
Method: (§1) The effect of 4-PBA on cell death of hypersensitive nature was tested on several pathosystems, including those presented in FIGS. 1 & 2, namely Gossypium hirsutum/Xanthomonas campestris pv. malvacearum and Arabidopsis thaliana/Pseudomonas syringae. pv. tomato, respectively. […] The latter data concern hypersensitive cell death induced in tobacco by an elicitor of fungal origin, cryptogein, and nonhost hypersensitive cell death in tobacco interacting with the bacterium Pseudomonas syringae pv. tomato.

[2] = test system: hypersensitive cell death induced by Xanthomonas campestris pv. malvacearum (Xcm, race 18); test: Hypersensitive cell death induced by Xcm infiltration into cotton plant cotyledons; type: in vivo, Gossypium hirsutum; settings: 4-PBA 2 mM co-infiltrated with Xcm race 18 at 10^8 cfu/ml; four days after inoculation; FIG. 1
Method: (§2) A stock solution of 4-PBA (10 mM) was prepared extemporaneously by dissolving powder in sterile distilled water. In order to allow complete dissolution of the 4-PBA, the solution was heated at 50° C. for 10 minutes.
The Xanthomonas campestris pv. malvacearum bacteria (Xcm, race 18) were cultured overnight in a rich nutritive medium (King B). After sedimentation by centrifugation, said bacteria were washed with sterile distilled water before being resuspended at a concentration of 10^8 cfu/ml. The resuspending of the cells is carried out either in sterile distilled water, or in a solution of 4-PBA at 2 mM. These two types of suspensions were infiltrated into cotton plant (Gossypium hirsutum) cotyledons on each side of the central vein for comparison.

[3] = test system: genes encoding BiP1,2, BiP3, CNX1 and CRT1; test: Real-time quantitative PCR of endoplasmic reticulum chaperone genes in A. thaliana leaves; type: in vivo, Arabidopsis thaliana; settings: 44 hours post-inoculation, FIG. 3
Method: The 4-PBA solutions used in the experiments described hereinafter were prepared as described in Example 1.
The infection with Pst (avirulent strain DC3000::AvrRpt2) was carried out under the same conditions as those described above. An additional condition was added, corresponding to the infiltration of a solution of 4-PBA (1 mM) alone into the A. thaliana leaves.
Samples were harvested 44 hours post-inoculation, frozen in liquid nitrogen and then stored at −80° C. until total RNA extraction. The total RNA was reverse transcribed so as to synthesize cDNAs. These cDNAs were used as a template in real-time quantitative PCR experiments. Primers specific for the genes encoding the binding proteins (BiP1,2 and BiP3), calnexin 1 (CNX1) and calreticulin 1 (CRT1) were designed so as to measure the expression of these genes. The expression of the genes of interest was standardized with respect to that of an actin gene. These experiments were repeated once, including one as a duplicate per experiment.

Xcm race 20 = test: In vitro bacterial growth in King B liquid medium, absorbance at 600 nm; type: cell-based, Xanthomonas campestris pv. malvacearum; settings: 4-PBA 1 mM in King B liquid medium; approximately 16 hours, 30° C.; FIG. 5
Method: The effect of 4-PBA on phytopathogenic bacteria was tested in vitro on the bacterial strain Xcm race 20. The strain was cultured in King B liquid medium in the presence or absence of 4-PBA. The 4-PBA solution was prepared extemporaneously as described above. The nutritive medium was inoculated either using glycerol stocks, or using bacterial colonies freshly cultured in solid medium. The nutritive medium was then supplemented with the 4-PBA solution in order to achieve a final concentration of 1 mM (final volume of 10 ml). […] The tubes were then incubated overnight (approximately 16 hours) with gentle shaking at 30° C. The bacterial growth was then measured by nephelometry by measuring the absorbance of an aliquot of the bacterial cultures at 600 nm. This experiment was repeated three times. Each experiment contained one technical triplicate per condition, i.e. condition with 4-PBA and condition without 4-PBA.

[4] = test system: hypersensitive cell death induced by Pseudomonas syringae pv. tomato (Pst, avirulent strain DC3000::AvrRpt2); test: Hypersensitive cell death induced by Pst infiltration into Arabidopsis thaliana leaves; type: in vivo; settings: 4-PBA 1 mM co-infiltrated with Pst DC3000::AvrRpt2 at 10^7 cfu/ml; six days post-inoculation; FIG. 2
Method: as §2
The bacteria (Pst, avirulent strain DC3000::AvrRpt2) were cultured overnight in a rich nutritive medium (King B). After sedimentation by centrifugation, said bacteria were washed with sterile distilled water before being resuspended at a concentration of 10^7 cfu/ml. The resuspending of the cells is carried out either in sterile distilled water, or in a solution of 4-PBA at 1 mM. These suspensions were then infiltrated into the leaves of the Arabidopsis thaliana rosette. The macroscopic symptoms were monitored over a period of six days post-inoculation.

[5] = test system: genes encoding BiP proteins; test: Real-time quantitative PCR of BiP genes in tobacco leaves; type: in vivo, Nicotiana tabacum; settings: 4-PBA infiltrated into tobacco leaves; FIG. 4B
Method: (§3) The concentration range presented in FIG. 4A was produced by infiltration into tobacco leaves of 4-PBA solutions at 0.5, 1, 2.5 and 5 mM. The macroscopic symptoms were evaluated 48 hours post-infiltration. Samples were also harvested at the times indicated in FIG. 4B and treated as described above so as to be analyzed by real-time quantitative PCR. Primers specific for all of the nine genes encoding BiP proteins were designed for this purpose.

[6] = test system: nonhost hypersensitive cell death induced by Pseudomonas syringae pv. tomato; test: Nonhost hypersensitive cell death in tobacco interacting with Pseudomonas syringae pv. tomato (data not presented); type: in vivo
Method: as §1

[7] = test system: tobacco leaves (plant cells); test: Concentration range infiltrated into tobacco leaves, macroscopic symptoms; type: in vivo, Nicotiana tabacum; settings: 4-PBA at 0.5, 1, 2.5 and 5 mM infiltrated into tobacco leaves; 48 hours post-infiltration; FIG. 4A
Method: as §3

O=C(O)CCCc1ccccc1 [4-PBA, 4-phenylbutyric acid]
hypersensitive cell death induced by cryptogein in tobacco [1]: repress hypersensitive cell death
hypersensitive symptoms (macroscopic) in cotton plant cotyledonary leaves [2]: strongly represses the hypersensitive symptoms
expression of genes encoding chaperone proteins (BiP1,2, BiP3, CNX1, CRT1) ([3]; 4-PBA 1 mM infiltrated alone, standardized to actin): significantly induce the expression of genes encoding chaperone proteins
expression of BiP1,2, CNX1 and CRT1 genes, 4-PBA combined with Pst infection ([3]; 4-PBA 1 mM plus Pst): synergistic effect
bacterial growth (absorbance at 600 nm) (Xcm race 20): strongly inhibits the growth
hypersensitive symptoms (macroscopic) in A. thaliana leaves [4]: capable of abolishing the hypersensitive symptoms
BiP gene expression in tobacco [5]: capable of inducing BiP gene expression in tobacco
nonhost hypersensitive cell death in tobacco with Pseudomonas syringae pv. tomato [6]: confirm the anti-cell death properties
toxicity to plant cells (macroscopic symptoms) [7]: not toxic to the plant cells

From patent US9730442B2, “Use of 4-phenylbutyric acid for improving the tolerance of plants to harmful biological organisms” (INSTITUT DE RECHERCHE POUR LE DÉVELOPPEMENT (IRD), priority 2012, dated 2017)
